From patent publication US3966739A, “Pyrrole-carboxylic acids lumilysergol esters” (Societa' Farmaceutici Italia S.p.A., priority 1971, dated 1976)
In brackets after ≈: the same amount, converted by molar mass. Counter-ions that a name gives are not always drawn. Like-named read-outs stand apart in the source and are kept apart here.

Key:
[1] = tested on: lethal effects of adrenaline; assay: adrenolytic activity in vivo in the rat (reduction of lethal effects of adrenaline)
Source text: The same activity, in vivo, has been determined in the rat. Table II reports the doses ID50 (in mg/kg) capable of reducing 50% of the lethal effects of adrenaline by intravenous administration (i.v.) and oral administration (os) of the compounds under examination.

[2] = tested on: spasmogen action of adrenaline on isolated seminal small bladder; assay: adrenolytic activity on isolated seminal small bladder of guinea-pig (inhibition of spasmogen action of adrenaline); format: cell-based; details: Cavia porcellus; isolated seminal small bladder of guinea-pig suspended in physiologic solution; read-out: concentrations inhibiting 50% of the spasmogen action of adrenaline (IC50)
Source text: The adrenolytic activity of the compounds of the invention has been tested by employing dihydroergotamine as a comparison compound. Particularly, it has been determined on the isolated seminal small bladder of guinea-pig suspended in physiologic solution.
Table I reports the concentrations inhibiting 50% of the spasmogen action of adrenaline (IC50).

[3] = intravenous administration (i.v.), read-out: ID50 (i.v.): dose reducing 50% of the lethal effects of adrenaline
[4] = oral administration (os), read-out: ID50 (os): dose reducing 50% of the lethal effects of adrenaline

Compound	ED50 [1, 3]	ED50 [1, 4]	IC50 [2]
CO[C@]12C[C@@H](COC(=O)c3ccc[nH]3)CN(C)[C@@H]1Cc1cn(C)c3cccc2c13 [1,6-Dimethyl-8β-(2'-pyrroyloxymethyl)-10α-methoxyergoline]	0.005 mg/kg	0.5 mg/kg	0.005 µg/mL (≈ 0.0127 µM)
CO[C@]12C[C@@H](COC(=O)c3[nH]c(C)cc3C)CN(C)[C@@H]1Cc1cn(C)c3cccc2c13 [1,6-Dimethyl-8β-(3',5'-dimethyl-2'-pyrroyloxymethyl)-10α-methoxyergoline]	0.065 mg/kg	0.1 mg/kg	0.05 µg/mL (≈ 0.119 µM)
CO[C@]12C[C@@H](COC(=O)c3cc[nH]c3)CN(C)[C@@H]1Cc1cn(C)c3cccc2c13 [1,6-Dimethyl-8β-(3'-pyrroyloxymethyl)-10α-methoxyergoline]	0.05 mg/kg	0.5 mg/kg	0.005 µg/mL (≈ 0.0127 µM)
CO[C@]12C[C@@H](COC(=O)c3c(C)cc(C)n3C)CN(C)[C@@H]1Cc1cn(C)c3cccc2c13 [1,6-Dimethyl-8β-[1', 3',5'-trimethyl-2'-pyrroyloxymethyl]-10α-methoxyergoline maleate]	0.25 mg/kg	0.2 mg/kg	0.01 µg/mL
CO[C@]12C[C@@H](COC(=O)c3c(C)c[nH]c3C)CN(C)[C@@H]1Cc1cn(C)c3cccc2c13 [1,6-Dimethyl-8β-[2', 4'-dimethyl-3'-pyrroyloxymethyl]-10α-methoxyergoline]	0.1 mg/kg	0.7 mg/kg	0.07 µg/mL (≈ 0.166 µM)
CO[C@]12C[C@@H](COC(=O)c3cc[nH]c3C)CN(C)[C@@H]1Cc1cn(C)c3cccc2c13 [1,6-Dimethyl-8β-[2'-methyl-3'-pyrroyloxymethyl]-10α-methoxyergoline]	0.05 mg/kg	0.25 mg/kg	0.05 µg/mL (≈ 0.123 µM)
CO[C@]12C[C@@H](COC(=O)c3[nH]c(C)c(Br)c3C)CN(C)[C@@H]1Cc1cn(C)c3cccc2c13 [1,6-Dimethyl-8β-[3', 5'-dimethyl-4'-bromo-2'-pyrroyloxymethyl]-10α-methoxyergoline]	> 1 mg/kg	0.5 mg/kg	0.1 µg/mL (≈ 0.2 µM)
CCOC(=O)c1c(C)[nH]c(C(=O)OC[C@H]2CN(C)[C@@H]3Cc4cn(C)c5cccc(c45)[C@@]3(OC)C2)c1C [1,6-Dimethyl-8β-[3', 5'-dimethyl-4'-carbethoxy-2'-pyrroyloxymethyl]-10α-methoxyergoline]	> 0.1 mg/kg	2.5 mg/kg	1 µg/mL (≈ 2.03 µM)
COc1c[nH]cc1C(=O)OC[C@H]1CN(C)[C@@H]2Cc3cn(C)c4cccc(c34)[C@@]2(OC)C1 [1,6-Dimethyl-8β-[4'-methoxy-3'-pyrroyloxymethyl]-10α-methoxyergoline]	0.075 mg/kg	0.3 mg/kg	0.1 µg/mL (≈ 0.236 µM)
CO[C@]12C[C@@H](COC(=O)c3cccn3C)CN(C)[C@@H]1Cc1cn(C)c3cccc2c13 [1,6-dimethyl-8β-[2'-(N-methyl)-pyrroyloxymethyl]-10α-methoxyergoline]	0.025 mg/kg	1 mg/kg	0.005 µg/mL (≈ 0.0123 µM)
CN1C[C@H](C(=O)N[C@]2(C)O[C@@]3(O)[C@@H]4CCCN4C(=O)[C@H](Cc4ccccc4)N3C2=O)C[C@@H]2c3cccc4[nH]cc(c34)C[C@H]21 [Dihydroergotamine, reference compound]	0.08 mg/kg	15 mg/kg	0.015 µg/mL (≈ 0.0257 µM)
